Experiments:
[1] = system: TALL1; assay: Flow cytometry DNA content analysis (cell cycle arrest); assay type: cell-based, Human; settings: GSI sensitive cell line TALL1, flow cytometry
Method: DNA content analysis was performed using Propidium Iodide/RNase buffer (BD Biosciences, Cat. No. 550825, San Jose, Calif.) or Draq5. Briefly, 1×10(6) cells were harvested and fixed with 70% ethanol for 20 minutes on ice, washed and then resupended in 500 uL of PI buffer for 15 min at room temperature followed by analysis on flow cytometer (FACSCalibur, BD Biosciences). Draq5 staining was performed by incubating 200,000 live cells with 10 uM Draq5 for 5 minutes followed by flow cytometric analysis (488 nm excitation).

[2] = system: CDKN2D, CDKN1B; assay: Quantitative PCR of CDKN2D and CDKN1B in T-ALL cell lines; assay type: cell-based, Human; settings: TALL1 cells, 48 hours
Method: T-ALL cell lines were treated with DMSO or MRK-003 (active GSI) for 48 hours and then harvested. RNA was isolated using the RNeasy Mini Kit (Qiagen, Cat#: 74106). cDNA was synthesized using High Capacity Archive Kit (Applied Biosystems, Cat #: 4368814). qPCR was performed on an ABI 7900 using AACT protocol using their inventoried Taqman Probes/Primers for human CDKN2D, CDKN1B and GAPDH (as internal control). Analysis was performed in SDS 2.2.2 software (Applied Biosystems).

[3] = system: CDKN2D, CDKN1B; assay: Immunoblot of CDKN2D and CDKN1B; assay type: cell-based, Human; settings: TALL1 cells
Excerpt: Standard western blotting procedures were used. Antibodies used as follows; Rb-underphosphorylated, (BD Biosciences, Cat. No 554164, San Jose, Calif.) Rb-Total (Cat. No. 9309), CDKN1B (Cell Signaling Technologies, Cat. No. 2552, Danvers, Mass.), CDKN2D (Santa Cruz Biotechnologies, Cat No. sc-1063, Santa Cruz, Calif.), Beta-Actin (Abcam Inc., Cat. No. 8226, Cambridge, Mass.) Immunoblot of NOTCH intracellular domain (NICD) was previously determined (O'Neil, Grim et al. 2007)

[4] = system: DND41; assay: 7-day Cell Titer Glo viability assay; assay type: cell-based, Human; settings: DND41 cells, 7-day viability assay
Method: (§1) Human T-ALL cell lines were purchased from ATCC (Manassas, Va.) or DSMZ (Braunschweig, Germany). Cell lines were maintained in RPMI supplemented with 10-15% FBS and 2 mmol/L glutamine. For IC50 analyses TALL cell lines were plated in 96 well plates at 5000 cells/well, except for Tall-1 cells which were plated at 10,000 cells/well. Cells were re-fed with compound and media on day 4. Viability assays were performed using Cell Titer Glo kit (Promega, Cat. No. G7572, Fitchburg, Wis.) 7 days after compound addition. For larger scale compound treatments, TALL cell lines were plated in T-150 flasks at 200,000 cells/mL and treated at 0.1 or 1.0 μM GSI (MRK-003) for 3 days or as indicated. GSI washout studies were performed using 10 μM GSI. T-150 cultures were also re-fed on day 4.

[5] = system: LOUCY; assay: 7-day Cell Titer Glo viability assay; assay type: cell-based, Human; settings: LOUCY cells, 7-day viability assay
Method: as §1

[6] = system: MOLT-16; assay: 7-day Cell Titer Glo viability assay; assay type: cell-based, Human; settings: MOLT-16 cells, 7-day viability assay
Method: as §1

[7] = system: SKW-3; assay: 7-day Cell Titer Glo viability assay; assay type: cell-based, Human; settings: SKW-3 cells, 7-day viability assay
Method: as §1

[8] = system: RPMI 8402; assay: 7-day Cell Titer Glo viability assay; assay type: cell-based, Human; settings: RPMI 8402 cells, 7-day viability assay
Method: as §1

[9] = system: TALL-1; assay: 7-day Cell Titer Glo viability assay; assay type: cell-based, Human; settings: TALL-1 cells, 7-day viability assay
Method: as §1

[10] = system: KARPAS-45; assay: 7-day Cell Titer Glo viability assay; assay type: cell-based, Human; settings: KARPAS-45 cells, 7-day viability assay
Method: as §1

[11] = system: SUPT-11; assay: 7-day Cell Titer Glo viability assay; assay type: cell-based, Human; settings: SUPT-11 cells, 7-day viability assay
Method: as §1

[12] = system: HBP-ALL; assay: 7-day Cell Titer Glo viability assay; assay type: cell-based, Human; settings: HBP-ALL cells, 7-day viability assay
Method: as §1

[13] = system: MOLT -4; assay: 7-day Cell Titer Glo viability assay; assay type: cell-based, Human; settings: MOLT -4 cells, 7-day viability assay
Method: as §1

[14] = system: JURKAT; assay: 7-day Cell Titer Glo viability assay; assay type: cell-based, Human; settings: JURKAT cells, 7-day viability assay
Method: as §1

[15] = system: PF-382; assay: 7-day Cell Titer Glo viability assay; assay type: cell-based, Human; settings: PF-382 cells, 7-day viability assay
Method: as §1

[16] = system: KOPTK-1; assay: 7-day Cell Titer Glo viability assay; assay type: cell-based, Human; settings: KOPTK-1 cells, 7-day viability assay
Method: as §1

[17] = system: BE-13; assay: 7-day Cell Titer Glo viability assay; assay type: cell-based, Human; settings: BE-13 cells, 7-day viability assay
Method: as §1

[18] = system: CEM; assay: 7-day Cell Titer Glo viability assay; assay type: cell-based, Human; settings: CEM cells, 7-day viability assay
Method: as §1

[19] = system: HSB-2; assay: 7-day Cell Titer Glo viability assay; assay type: cell-based, Human; settings: HSB-2 cells, 7-day viability assay
Method: as §1

[20] = system: human T-ALL cell lines; assay: Grouping of 16 T-ALL cell lines by GSI sensitivity (7-day ATP viability assay); assay type: cell-based
Method: as §1
Previous studies have identified mutations in the heterodimerization domain or PEST domain of the NOTCH1 gene in T-ALL cell lines and patient samples resulting in increased NICD and presumably activation of the NOTCH signaling pathway (Weng, Ferrando et al. 2004; Zhu, Zhao et al. 2006). In a subset of human T-ALL cell lines with activating mutations in NOTCH1, treatment with GSIs leads to cell cycle arrest and apoptosis (Weng, Ferrando et al. 2004; Lewis, Leveridge et al. 2007). […] We determined IC50 values for 16 T-ALL cell lines using a 7-day viability assay which allowed grouping into four sensitivity groups (1) high, IC50<1 uM, (2) medium, IC50 3-4 uM, (3) low, IC50 6-7 uM, (4) none, IC50>10 uM and comparison to NOTCH1 mutuation and NICD protein Levels (Table1).
GSI IC50s, based on a 7-day ATP viability assay, are summarized for 16 T-ALL cell lines and grouped into high […], medium (3-4 uM), low (6-7 uM) or insensitive groupings (>10 uM). Also summarized is NOTCH1 mutation status, NICD levels and cell line group size for each sensitivity level previously described (O'Neil et al. 2007). NICD levels are reported qualitatively based on immunoblot signal, 0=none, 1=low, 2=medium, 3=high.

Q: How did the “cell cycle arrest (FIG. 3A)” value [1] turn out when `O=S1(=O)N[C@@]2(CN1CC(F)(F)F)[C@@H]1CC[C@H]2Cc2ccc(/C=C/CN3CCC(C(F)(F)F)CC3)cc2C1` [MRK-003] was run?
A: induced cell cycle arrest

Q: What about the “increases in CDKN2D and CDKN1B by quantitative PCR (FIG. 3B)” value [2] of the same compound?
A: increases in the CDKi CDKN2D and CDKN1B

Q: And the “increases in CDKN2D and CDKN1B by immunoblot (FIG. 3C)” value [3]?
A: increases in the CDKi CDKN2D and CDKN1B

Q: And the IC50 [4]?
A: 0.25 µM

Q: What about the IC50 [5] of the same compound?
A: > 10 µM

Q: What about the IC50 [6] of the same compound?
A: > 10 µM

Q: What about the IC50 [7] of the same compound?
A: > 10 µM

Q: And the IC50 [8]?
A: 0.86 µM

Q: And the IC50 [9]?
A: 0.11 µM

Q: And the IC50 [10]?
A: 0.81 µM

Q: What about the IC50 [11] of the same compound?
A: 7.1 µM

Q: And the IC50 [12]?
A: 0.38 µM

Q: What about the IC50 [13] of the same compound?
A: > 10 µM

Q: And the IC50 [14]?
A: > 10 µM

Q: And the IC50 [15]?
A: 3.2 µM

Q: And the IC50 [16]?
A: 0.15 µM

Q: What about the IC50 [17] of the same compound?
A: 6.8 µM

Q: And the IC50 [18]?
A: 3.2 µM

Q: What about the IC50 [19] of the same compound?
A: 3.7 µM

Q: And the “GSI Sensitivity” value ([20]; cell lines BE-13, SUPT-11)?
A: Low (low, IC50 6-7 uM)

Q: What about the “GSI Sensitivity” value ([20]; cell lines CEM, PF-382, HSB-2) of the same compound?
A: Medium (medium, IC50 3-4 uM)

Q: And the “GSI Sensitivity” value ([20]; cell lines JURKAT, LOUCY, MOLT -4, MOLT-16, SKW-3)?
A: None (none, IC50>10 uM)

Q: What about the “GSI Sensitivity” value ([20]; cell lines TALL-1, KOPTK-1, DND41, HBP-ALL, KARPAS-45, RPMI 8402) of the same compound?
A: High (high, IC50<1 uM)

Source: patent US20130178391A1, “METHODS FOR PREDICTING TREATMENT RESPONSE BASED ON THE EXPRESSION PROFILES OF BIOMARKER GENES IN NOTCH MEDIATED CANCERS” (Rosetta Inpharmaceutics LLC, priority 2007, published 2013)
